Measured values from patent US11572379B2, “Monomaleimide-functionalized platinum compounds for cancer therapy” (Medizinische Universität Wien, priority 2015, dated 2023).
“Also recorded” adds a separate entry of the source.

Key:
[1] = system: CT-26 colon cancer cells; test: CT-26 colon cancer in vivo assay for anticancer activity; parameters: species or system Balb/c mice
Description: CT-26 colon cancer cells (5×10^5 in serum-free medium) were injected subcutaneously into the right flank of Balb/c mice. Animals were treated with the indicated oxaliplatin-releasing drugs at concentrations equimolar to 9 mg/kg oxaliplatin (i.v.; KP2156, KP2299 (compound 12), and KP2541 (compound 22) were dissolved in 0.9% NaCl solution, KP2260 (compound 11) was dissolved in 10% propylene glycol/0.9% NaCl and oxaliplatin was dissolved in 5% glucose solution according to the clinical protocol) twice a week (Mondays and Thursdays). Also in case of KP2552 (mixture of compounds 23 and 24, with the 4-methyl-1,2-cyclohexanediamine moiety) the solvent and application scheme of oxaliplatin was used. In case of cisplatin-releasing prodrugs KP2372 (compound 8) and KP2540 (compound 30), a dose equimolar to 3 mg/kg cisplatin was applied twice a week. For the carboplatin derivative KP2551 (compound 20) a dose equimolar to 12 mg/kg carboplatin was applied. The complexes were dissolved in 0.9% NaCl, while for the platinum(II) drugs 5% glucose solution was used according to the clinical protocol. Animals were controlled for distress development every day and tumor size was assessed regularly by caliper measurement. Tumor volume was calculated using the formula: (length×width^2).

[2] = system: B16 melanoma cells; test: B16 melanoma in vivo assay for anticancer activity; conditions: male C57/B6JRj mice, i.v. twice a week, equimolar to 9 mg/kg oxaliplatin
Description: B16 melanoma cells (1×10^5 in serum-free medium) were injected subcutaneously into the right flank of male C57/B6JRj mice. Animals were treated with KP2299 at concentrations equimolar to 9 mg/kg oxaliplatin (i.v.; dissolved in 0.9% NaCl solution) twice a week. Oxaliplatin was dissolved in 5% glucose solution according to the clinical protocol. Animals were controlled for distress development every day and tumor size was assessed regularly by caliper measurement. Tumor volume was calculated using the formula: (length×width^2).

[3] = system: L1210 murine leukemia cells; test: L1210 leukemia in vivo assay (survival); conditions: L1210 i.p., male DBA/2J×Balb/c SCID F1 mice
Description: L1210 murine leukemia cells (1×10^5) were injected intraperitoneally in a volume of 0.2 mL into female DBA/2J (cisplatin-releasing drugs) or male DBA/2J×Balb/c SCID F1 mice (oxaliplatin-releasing drugs). Compounds (see FIG. 4; dissolved as described above) were administered intraperitoneally at drug concentrations equimolar to 3 mg/kg cisplatin and 9 mg/kg oxaliplatin, respectively, on day 1, 5, and 9. Toxicity was monitored by daily observation of animals and registration of their body weight. Therapeutic efficacy of the drug candidate was monitored by recording the lengths of survival of experimental mice compared to untreated control animals.

[4] = RP-HPLC stability studies: hydrolytic stability in buffered aqueous solution at different pH values; format: physicochemical; conditions: 0.5 mM, 20° C.; for stability (decrease of the compound peak area): over 24 h; for hydrolysis: 24 hours
Description: The stability of the compounds of the invention in aqueous solutions at different pH values was evaluated by incubation of compound 12 (KP2299) in different buffers and subsequent monitoring of the decrease of the compound peak area with the UV/VIS detector of a RP-HPLC system at 250 nm. Therefore, compound 12 was dissolved at a concentration of 0.5 mM in either 100 mM phosphate buffer pH=7.4, 100 mM sodium acetate buffer pH=6.3, 100 mM sodium acetate buffer pH=5.3 or 100 mM sodium acetate buffer pH=4.3 and incubated at 20° C. for 24 hours. All the measurements were carried out on an Ultimate 3000 RS system (Thermo Scientific, Waltham, Mass., USA) controlled by Chromeleon 7.2 SR4 software using an Acquity BEH C18 reversed phase column (50×3.0 mm, 1.7 μm particle size) from Waters (Milford, USA). Following conditions were used for the runs: flow rate 0.6 mL/min, sampler temperature: 20° C., column oven temperature 25° C., injection volume 10 μL, gradient 5-95% MeOH (and H2O (+0.1% HCOOH)) in 10 min. The compound was first measured directly after the preparation of the compound (after 2-3 min) and thereafter every 60 min. The decrease of the compound was calculated by the compound peak areas relatively to the peak area directly after the preparation of the compound. […] At pH=6.3 the hydrolysis is below 0.5%/h, whereas at pH=7.4 the hydrolysis is quite fast with ˜2.6%/h (see FIG. 5). Corresponding results can be obtained when the further compounds of the invention are tested.

[5] = Aqueous solubility; conditions: compared to KP2260
[6] = Balb/c mice, i.v. twice a week, equimolar to 9 mg/kg oxaliplatin
[7] = male Balb/c mice, dose equimolar to 12 mg/kg carboplatin
[8] = Balb/c mice, twice a week, dose equimolar to 3 mg/kg cisplatin

## (OC-6-44)-Acetato[(1R,2R)-cyclohexane-1,2-diamine]oxalato[4-(2,5-dioxo-2,5-dihydro-1H-pyrrol-1-yl)butanoato]platinum(IV) [KP2541]
[1]; [6]
  anticancer activity against CT-26 tumors (tumor growth): far less or at least later active

## CC(=O)[O][Pt]1([NH2])([NH2])([O]C(=O)NCCN2C(=O)C=CC2=O)[O]C(=O)C2(CCC2)C(=O)[O]1 [KP2551, (OC-6-34)-Acetatodiamminecyclobutane-1,1-dicarboxylato[2-(2,5-dioxo-2,5-dihydro-1H-pyrrol-1-yl)ethylcarbamato]platinum(IV)]
[1]; [7]
  anticancer activity against CT-26 tumors (tumor growth): distinctly more active than all other tested compounds; also recorded: very strong anticancer activity

## (OC-6-34)-[(1R,2R)-Cyclohexane-1,2-diamine]methoxidooxalato[2-(2,5-dioxo-2,5-dihydro-1H-pyrrol-1-yl)ethylcarbamato]platinum(IV) [KP2260]
[1]; [6]
  anticancer activity against CT-26 tumors (tumor growth): far less or at least later active

## [NH2][Pt]1([NH2])[O]C(=O)C2(CCC2)C(=O)[O]1 [carboplatin, (SP-4-2)-Diamminecyclobutane-1,1-dicarboxylatoplatinum(II), reference compound]
[1]; [7]
  anticancer activity against CT-26 tumors (tumor growth): no impact

## CC(=O)[O][Pt]([Cl])([Cl])[O]C(=O)NCCN1C(=O)C=CC1=O.N.N [KP2372, (OC-6-44)-Acetatodiamminedichlorido[2-(2,5-dioxo-2,5-dihydro-1H-pyrrol-1-yl)ethylcarbamato]platinum(IV)]
[1]; [8]
  anticancer activity against CT-26 tumors (tumor growth): only marginally active; also recorded: widely inactive

## CC(=O)[O][Pt]([Cl])([Cl])[O]C(=O)NCCCCCN1C(=O)C=CC1=O.N.N [KP2540, (OC-6-44)-Acetatodiamminedichlorido[5-(2,5-dioxo-2,5-dihydro-1H-pyrrol-1-yl)pentylcarbamato]platinum(IV)]
[1]; [8]
  anticancer activity against CT-26 tumors (tumor growth): only marginally active; also recorded: widely inactive

## (OC-6-34)-Acetato[(1R,2R)-cyclohexane-1,2-diamine]oxalato[2-(2,5-dioxo-2,5-dihydro-1H-pyrrol-1-yl)ethylcarbamato]platinum(IV) [KP2299]
[2]
  anticancer activity against B16 tumors: exceptionally increased anticancer activity
[3]; i.p. day 1, 5, 9, equimolar to 9 mg/kg oxaliplatin
  anti-leukemic activity (survival): distinct anti-leukemic activity
[1]; [6]
  anticancer activity against CT-26 tumors (tumor growth): distinctly more active than all other tested compounds; also recorded: distinctly higher anticancer activity; also recorded: exceptionally increased anticancer activity
[1]; CT-26, female mice, equimolar to 9 mg/kg oxaliplatin i.v. twice a week
  complete remission: 3 out of 4
[4]; pH=4.3, 100 mM sodium acetate buffer
  stability (decrease of the compound peak area): stable
[4]; pH=5.3, 100 mM sodium acetate buffer
  stability (decrease of the compound peak area): stable
[4]; pH=6.3, 100 mM sodium acetate buffer
  hydrolysis: below 0.5 %/h
[4]; pH=7.4, 100 mM phosphate buffer
  hydrolysis: ~2.6 %/h
[5]
  aqueous solubility: highly increased

## O=C1[O][Pt]2([NH][C@@H]3CCCC[C@H]3[NH]2)[O]C1=O [oxaliplatin, reference compound]
[3]; i.p. day 1, 5, 9, 9 mg/kg oxaliplatin
  treated animals with life prolongation: ~50%
